Test results published in US20230086703A1, “N-(4-(5-chloropyridin-3-yl)phenyl)-2-(2-(cyclopropanesulfonamido)pyrimidin-4-yl) butanamide derivatives and related compounds as human CTPS1 inhibitors for the treatment of proliferative diseases” (Step Pharma S.A.S., priority 2019, published 2023).
Several values for one entry are separate records, joined by “and”; a condition that tells them apart may be missing. Equal entries are not always repeated.

Each compound was assayed against T1, human CTPS1 (Homo sapiens, UniProt P17812) (assay: Human CTPS1 enzyme inhibition, ADP-Glo Max assay). Settings: ADP-Glo Max assay; Table 10; read-out: Human CTPS1 Enzyme Inhibition, IC50 grouped by potency range (CTPS1).
T1 construct: FLAG (with GG linker); His8 (with GG linker); purchased Proteros biostructures GmbH
T1 sequence (P17812 1-591): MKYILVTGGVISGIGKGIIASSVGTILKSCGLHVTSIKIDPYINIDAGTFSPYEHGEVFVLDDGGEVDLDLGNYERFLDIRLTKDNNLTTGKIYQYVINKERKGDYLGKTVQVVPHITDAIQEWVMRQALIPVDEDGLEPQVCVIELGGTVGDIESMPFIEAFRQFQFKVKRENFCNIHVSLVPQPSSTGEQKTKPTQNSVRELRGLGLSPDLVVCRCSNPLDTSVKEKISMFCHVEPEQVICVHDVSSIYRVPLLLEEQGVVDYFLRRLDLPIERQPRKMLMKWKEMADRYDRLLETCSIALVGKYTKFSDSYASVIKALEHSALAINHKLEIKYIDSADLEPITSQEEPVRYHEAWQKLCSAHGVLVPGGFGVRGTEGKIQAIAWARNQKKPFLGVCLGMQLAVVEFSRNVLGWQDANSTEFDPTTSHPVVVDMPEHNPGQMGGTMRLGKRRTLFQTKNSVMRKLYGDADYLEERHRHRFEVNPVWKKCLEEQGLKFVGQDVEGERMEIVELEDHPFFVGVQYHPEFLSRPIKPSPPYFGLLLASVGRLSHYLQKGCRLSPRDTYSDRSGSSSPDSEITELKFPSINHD
Type: biochemical
Procedure, shortened: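 Enzyme preincubated with compound for 10 min at 25 °C in 50 mM Tris pH 8.0, 10 mM MgCl2, 0.01% Tween-20, 2 mM L-cysteine. ATP-to-ADP conversion detected by ADP-Glo Max luminescence after 60 min depletion and 60 min development steps. Percentage inhibition calculated per concentration.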

IC50	Compound
0.1 to 1 µM	CC(C)(C(=O)Nc1ccc(-c2cnccn2)cn1)c1csc(NS(=O)(=O)C2CC2)n1 [T140, 2-(2-(cyclopropanesulfonamido)thiazol-4-yl)-2-methyl-N-(5-(pyrazin-2-yl)pyridin-2-yl)propanamide]
< 0.1 µM	CC(C)(C(=O)Nc1ccc(-c2cncc(OC3CC3)n2)cn1)c1csc(NS(=O)(=O)C2CC2)n1 [T142, 2-(2-(cyclopropanesulfonamido)thiazol-4-yl)-N-(5-(6-cyclopropoxypyrazin-2-yl)pyridin-2-yl)-2-methylpropanamide]
< 0.1 µM	CC(C)Oc1cncc(-c2ccc(NC(=O)C(C)(C)c3csc(NS(=O)(=O)C4CC4)n3)nc2)n1 [T143, 2-(2-(cyclopropanesulfonamido)thiazol-4-yl)-N-(5-(6-isopropoxypyrazin-2-yl)pyridin-2-yl)-2-methylpropanamide]
0.1 to 1 µM	CCC(CC)(C(=O)Nc1ccc(-c2cccnc2)cn1)c1csc(NS(=O)(=O)C2CC2)n1 [T144, N-([3,3′-bipyridin]-6-yl)-2-(2-(cyclopropanesulfonamido)thiazol-4-yl)-2-ethylbutanamide]
< 0.1 µM	CCOc1cncc(-c2ccc(NC(=O)C(CC)(CC)c3csc(NS(=O)(=O)C4CC4)n3)nc2)c1 [T145, 2-(2-(cyclopropanesulfonamido)thiazol-4-yl)-N-(5′-ethoxy-[3,3′-bipyridin]-6-yl)-2-ethylbutanamide]
0.1 to 1 µM	CCCOc1cncc(-c2ccc(NC(=O)C(C)(C)c3csc(NS(=O)(=O)C4CC4)n3)nc2)c1 [T146, 2-(2-(cyclopropanesulfonamido)thiazol-4-yl)-2-methyl-N-(5′-propoxy-[3,3′-bipyridin]-6-yl)propanamide]
< 0.1 µM	CCC(CC)(C(=O)Nc1ccc(-c2cncc(C(F)(F)F)n2)cn1)c1csc(NS(=O)(=O)C2CC2)n1 [T147, 2-(2-(cyclopropanesulfonamido)thiazol-4-yl)-2-ethyl-N-(5-(6-(trifluoromethyl)pyrazin-2-yl)pyridin-2-yl)butanamide]
0.1 to 1 µM	CC(C)(C(=O)Nc1ccc(-c2cccnc2)cn1)c1csc(NS(=O)(=O)C2CC2)n1 [T148, N-([3,3′-bipyridin]-6-yl)-2-(2-(cyclopropanesulfonamido)thiazol-4-yl)-2-methylpropanamide]
< 0.1 µM	CCC(CC)(C(=O)Nc1ccc(-c2cncc(F)c2)cc1)c1csc(NS(=O)(=O)C2CC2)n1 [T156, 2-(2-(cyclopropanesulfonamido)thiazol-4-yl)-2-ethyl-N-(4-(5-fluoropyridin-3-yl)phenyl)butanamide]
< 0.1 µM	CCCOc1cncc(-c2ccc(NC(=O)C(C)(C)c3csc(NS(=O)(=O)C4CC4)n3)cc2)c1 [T157, 2-(2-(cyclopropanesulfonamido)thiazol-4-yl)-2-methyl-N-(4-(5-propoxypyridin-3-yl)phenyl)propanamide]
< 0.1 µM	CC(C)Oc1cncc(-c2ccc(NC(=O)C(C)(C)c3csc(NS(=O)(=O)C4CC4)n3)cc2)c1 [T158, 2-(2-(cyclopropanesulfonamido)thiazol-4-yl)-N-(4-(5-isopropoxypyridin-3-yl)phenyl)-2-methylpropanamide]
0.1 to 1 µM and 1 to 10 µM	CCC(CC)(C(=O)Nc1ccc(-c2cncc(C#N)n2)cc1)c1csc(NS(=O)(=O)C2CC2)n1 [T161, N-(4-(6-cyanopyrazin-2-yl)phenyl)-2-(2-(cyclopropanesulfonamido)thiazol-4-yl)-2-ethylbutanamide]
< 0.1 µM	COc1cncc(-c2ccc(NC(=O)C(C)(C)c3csc(NS(=O)(=O)C4CC4)n3)nc2)c1 [T224, 2-(2-(cyclopropanesulfonamido)thiazol-4-yl)-N-(5′-methoxy-[3,3′-bipyridin]-6-yl)-2-methylpropanamide]
< 0.1 µM	CC(C)(C(=O)Nc1ccc(-c2cncc(Cl)c2)cn1)c1csc(NS(=O)(=O)C2CC2)n1 [T225, N-(5′-chloro-[3,3′-bipyridin]-6-yl)-2-(2-(cyclopropanesulfonamido)thiazol-4-yl)-2-methylpropanamide]
< 0.1 µM	CC(C)(C(=O)Nc1ccc(-c2cncc(C#N)c2)cn1)c1csc(NS(=O)(=O)C2CC2)n1 [T226, N-(5′-cyano-[3,3′-bipyridin]-6-yl)-2-(2-(cyclopropanesulfonamido)thiazol-4-yl)-2-methylpropanamide]

The next lines start with the compound.

Compound	IC50
CCOc1cncc(-c2ccc(NC(=O)C(C)(C)c3csc(NS(=O)(=O)C4CC4)n3)c(C)c2)n1 [T137, 2-(2-(cyclopropanesulfonamido)thiazol-4-yl)-N-(4-(6-ethoxypyrazin-2-yl)-2-methylphenyl)-2-methylpropanamide]	< 0.1 µM
Cc1cc(-c2cncc(Cl)n2)ccc1NC(=O)C(C)(C)c1csc(NS(=O)(=O)C2CC2)n1 [T138, N-(4-(6-chloropyrazin-2-yl)-2-methylphenyl)-2-(2-(cyclopropanesulfonamido)thiazol-4-yl)-2-methylpropanamide]	< 0.1 µM
CC(C)(C(=O)Nc1ccc(-c2cncc(OC(F)F)c2)cc1F)c1csc(NS(=O)(=O)C2CC2)n1 [T139, 2-(2-(cyclopropanesulfonamido)thiazol-4-yl)-N-(4-(5-(difluoromethoxy)pyridin-3-yl)-2-fluorophenyl)-2-methylpropanamide]	< 0.1 µM
CC(C)(C(=O)Nc1ccc(-c2cncc(OC3CCC3)n2)cn1)c1csc(NS(=O)(=O)C2CC2)n1 [T141, N-(5-(6-cyclobutoxypyrazin-2-yl)pyridin-2-yl)-2-(2-(cyclopropanesulfonamido)thiazol-4-yl)-2-methylpropanamide]	0.1 to 1 µM
COc1cc(-c2cccnc2)ccc1NC(=O)C(C)(C)c1csc(NS(=O)(=O)C2CC2)n1 [T149, 2-(2-(cyclopropanesulfonamido)thiazol-4-yl)-N-(2-methoxy-4-(pyridin-3-yl)phenyl)-2-methylpropanamide]	< 0.1 µM
COc1cc(NC(=O)C(C)(C)c2csc(NS(=O)(=O)C3CC3)n2)ccc1-c1cccnc1 [T150, 2-(2-(cyclopropanesulfonamido)thiazol-4-yl)-N-(3-methoxy-4-(pyridin-3-yl)phenyl)-2-methylpropanamide]	0.1 to 1 µM
CC(C)(C(=O)Nc1ccc(-c2cccnc2)c(F)c1)c1csc(NS(=O)(=O)C2CC2)n1 [T151, 2-(2-(cyclopropanesulfonamido)thiazol-4-yl)-N-(3-fluoro-4-(pyridin-3-yl)phenyl)-2-methylpropanamide]	0.1 to 1 µM
CC(C)(C(=O)Nc1ccc(-c2cccnc2)c(C#N)c1)c1csc(NS(=O)(=O)C2CC2)n1 [T152, N-(3-cyano-4-(pyridin-3-yl)phenyl)-2-(2-(cyclopropanesulfonamido)thiazol-4-yl)-2-methylpropanamide]	0.1 to 1 µM
CC(C)(C(=O)Nc1ccc(-c2cncc(C#N)n2)cc1)c1csc(NS(=O)(=O)C2CC2)n1 [T154, N-(4-(6-cyanopyrazin-2-yl)phenyl)-2-(2-(cyclopropanesulfonamido)thiazol-4-yl)-2-methylpropanamide]	0.1 to 1 µM
CC(C)(C(=O)Nc1ccc(-c2cncc(Cl)n2)cc1)c1csc(NS(=O)(=O)C2CC2)n1 [T155, N-(4-(6-chloropyrazin-2-yl)phenyl)-2-(2-(cyclopropanesulfonamido)thiazol-4-yl)-2-methylpropanamide]	< 0.1 µM
CC(C)Oc1cncc(-c2ccc(NC(=O)C(C)(C)c3csc(NS(=O)(=O)C4CC4)n3)c(F)c2)c1 [T159, 2-(2-(cyclopropanesulfonamido)thiazol-4-yl)-N-(2-fluoro-4-(5-isopropoxypyridin-3-yl)phenyl)-2-methylpropanamide]	< 0.1 µM
CC(C)(C(=O)Nc1ccc(-c2cccnc2)cc1)c1csc(NS(C)(=O)=O)n1 [T163, 2-methyl-2-(2-(methylsulfonamido)thiazol-4-yl)-N-(4-(pyridin-3-yl)phenyl)propanamide]	0.1 to 1 µM
CN(C(=O)C(C)(C)c1csc(NS(=O)(=O)C2CC2)n1)c1ccc(-c2cccnc2)cc1 [T164, 2-(2-(cyclopropanesulfonamido)thiazol-4-yl)-N,2-dimethyl-N-(4-(pyridin-3-yl)phenyl)propanamide]	1 to 10 µM
O=C(Cc1csc(NS(=O)(=O)C2CC2)n1)Nc1ccc(-c2cccnc2)c(F)c1F [T188, 2-(2-(cyclopropanesulfonamido)thiazol-4-yl)-N-(2,3-difluoro-4-(pyridin-3-yl)phenyl)acetamide]	0.1 to 1 µM
COc1cc(-c2cccnc2)ccc1NC(=O)Cc1csc(NS(=O)(=O)C2CC2)n1 [T215, 2-(2-(cyclopropanesulfonamido)thiazol-4-yl)-N-(2-methoxy-4-(pyridin-3-yl)phenyl)acetamide]	< 0.1 µM
O=C(Cc1csc(NS(=O)(=O)C2CC2)n1)Nc1ccc(-c2cccnc2)cc1F [T216, 2-(2-(cyclopropanesulfonamido)thiazol-4-yl)-N-(2-fluoro-4-(pyridin-3-yl)phenyl)acetamide]	0.1 to 1 µM
CC(C)(C(=O)Nc1ncc(-c2cccnc2)cc1F)c1csc(NS(=O)(=O)C2CC2)n1 [T227, 2-(2-(cyclopropanesulfonamido)thiazol-4-yl)-N-(5-fluoro-[3,3′-bipyridin]-6-yl)-2-methylpropanamide]	0.1 to 1 µM
